Where two headings read alike, the source gives them in different places.
What was measured:
Format in all cases: in vivo
[1] = test system: Erysiphe cichoracearum DC; experiment: Curative and residual control test, Cucumber Powdery Mildew (QPM); details: Golovinomyces cichoracearum, 72 h, read-out: Disease control (% efficacy); for Emax at 12.5 ppm: QPM 3 da R (3 day residual), 12,5 ppm; for Emax at 125 ppm / Emax at 1250 ppm: QPM 3 da R (3 day residual)
From the text: (§1) • (a) Wheat Powdery Mildew (WPM): HOST: Wheat (Triticum aestivum L.) variety Kanzler PATHOGEN: Blumeria (Erysiphe) graminis DC. f.sp. tritici E. Marchal • (b) Cucumber Powdery Mildew (QPM): HOST: Cucumber (Cucumis sativus L.) variety Bush pickle PATHOGEN: Erysiphe cichoracearum DC
(§2) This test procedure is for curative and residual control of powdery mildew diseases. • 1. Wheat seed (approximately 8-10/pot) or cucumber seed (1 seed / pot) is planted in 6 cm diameter plastic pots and maintained in the greenhouse. • 2. When the primary leaf (wheat) or the cotyledons (cucumber) is/are fully expanded, formulated test compounds are sprayed with a single nozzle overhead track sprayer at a rate of 200 l/ha. Plants are then allowed to air-dry. • 3. Inoculation precedes treatment by 2 or 3 days in the case of curative evaluations and follows treatment by 3 or 4 days in case of residual evaluations. For inoculation, plants are set up on greenhouse benches with bottom watering mats and inoculated by dusting them with conidia from powdery mildew infected plants (stock cultures at an age of 10-14 days). Between inoculation and treatment for curative evaluations and between treatment and inoculation for residual evaluations, plants are maintained in the greenhouse with bottom watering. • 4. Disease on the primary leaf (wheat) or on the cotyledons (cucumber) as percent leaf area with disease symptoms/signs is evaluated about 7 days after inoculation. In the case of wheat, the tips and bases of the leaves are excluded from the evaluation. Percent disease control is then calculated by the following formula: % disease control = 100 -(% infection in treated plants)/(% infection in untreated plants)x 100 [formula]
(§3) • 1. Technical compounds are formulated in a solvent/surfactant system consisting of 5% acetone and 0.05% Tween 20 in deionized water. Compounds are dissolved in acetone prior to addition of the water; the Tween 20 can be added through either the acetone or the water. Dilutions are made using the solvent/surfactant system. Formulated compounds are prepared using deionized water. • 2. Two kinds of controls are included: • Plants treated with the solvent/surfactant solution and inoculated (Solvent Blank). • Untreated plants which are inoculated (Inoculated Control).

[2] = test system: Blumeria (Erysiphe) graminis DC. f.sp. tritici E. Marchal; experiment: Curative and residual control test, Wheat Powdery Mildew (WPM); details: read-out: Disease control (% efficacy)
From the text: as §1, §2, §3

[3] = test system: Blumeria (Erysiphe) graminis DC. f.sp. tritici E. Marchal; experiment: Foliar systemicity test, wheat powdery mildew (band application on leaf); details: typically 400 ppm
From the text: Wheat Powdery Mildew (WPM): HOST: Wheat (Triticum aestivum L.) variety Kanzler PATHOGEN: Blumeria (Erysiphe) graminis DC. f.sp. tritici E. Marchal
• 1. Wheat seed (8/pot) is planted in 8 cm diameter plastic pots in the greenhouse. • 2. When the primary leaf is fully expanded, the plants are cut back to four in each pot of which two are marked with a permanent marker 5 cm below the leaf tip on the upper leaf surface. Thus there are two band-treated and two untreated plants in each pot. • 3. A pipette is used to apply 5 µl of the formulated compound in a band on the lower leaf surface opposite the mark. The application band should cover the whole leaf width. After application, the plants are not moved until the bands are dry (half an hour or so later). • 4. After treated plants have dried, they are moved to the greenhouse and kept there for 2 days to allow for movement of the compounds. The plants are maintained with bottom watering. • 5. Two days after application, the plants are inoculated by dusting them with powdery mildew conidia in the greenhouse. Evaluations are typically made 7 - 8 days after inoculation.
Three types of compound movement are assessed by evaluating disease in three areas of each band-treated leaf. Translaminar movement: The percent disease area is assessed for the translaminar band area (marked area of the upper leaf surface directly opposite where band was applied on the lower leaf surface; width of band approximately 5 mm). Translaminar disease control is then calculated using the following formula: % disease control = 100 -(% disease in treated plants)/(% disease in untreated plants)x 100 [formula]
Distal movement and proximal movement: The distal and proximal disease-free zones on the upper leaf surface are measured in mm. The distal direction is from the band toward the leaf apex and the proximal direction is from the band toward the leaf base. The percent of the disease-free zone relative to the entire distance between the band and leaf apex or base is calculated. If disease is noticeably lighter in the distal or proximal area this is also noted.
• 1. […]

COc1cc(C)c(C(=O)c2c(C)cccc2OC)c(OC)c1OC [Example 1, 6,6'-dimethyl-2,2',3',4'-tetramethoxy-benzophenone]
Emax at 12.5 ppm ([1]; Test A): 2%
Emax at 12.5 ppm ([1]; Test B): 3%
Emax at 125 ppm ([1]; Test A): 5%
Emax at 125 ppm ([1]; Test B): 61%
Emax at 1250 ppm ([1]; Test A): 100%
Emax at 1250 ppm ([1]; Test B): 100%
percent disease control at 12.5 ppm ([2]; 48 h, WPM 2 da C (2 day curative), 12,5 ppm, Test A): 69%
Emax at 12.5 ppm ([2]; 48 h, WPM 2 da C (2 day curative), 12,5 ppm, Test B): 52%
percent disease control at 125 ppm ([2]; 48 h, WPM 2 da C (2 day curative), 125 ppm, Test A): 79%
Emax at 125 ppm ([2]; 48 h, WPM 2 da C (2 day curative), 125 ppm, Test B): 65%
percent disease control at 1250 ppm ([2]; 48 h, WPM 2 da C (2 day curative), 1250 ppm, Test A): 88%
Emax at 1250 ppm ([2]; 48 h, WPM 2 da C (2 day curative), 1250 ppm, Test B): 85%
percent disease control at 12.5 ppm ([2]; 72 h, WPM 3 da R (3 day residual), 12,5 ppm, Test A): 90%
Emax at 12.5 ppm ([2]; 72 h, WPM 3 da R (3 day residual), 12,5 ppm, Test B): 100%
percent disease control at 125 ppm ([2]; 72 h, WPM 3 da R (3 day residual), 125 ppm, Test A): 100%
percent disease control at 125 ppm ([2]; 72 h, WPM 3 da R (3 day residual), 125 ppm, Test B): 100%
percent disease control at 1250 ppm ([2]; 72 h, WPM 3 da R (3 day residual), 1250 ppm, Test A): 100%
percent disease control at 1250 ppm ([2]; 72 h, WPM 3 da R (3 day residual), 1250 ppm, Test B): 100%
Translaminar Activity ( % ) ([3]; % disease control in translaminar band area, wheat variety Kanzler): 100%
Distal Movement (mm from band) ([3]; disease-free zone on wheat leaf (variety Kanzler) from band toward leaf apex, 5 µl band, inoculated 2 days after application): 50 mm
Proximal Movement (mm from band) ([3]; disease-free zone on wheat leaf (variety Kanzler) from band toward leaf base, 5 µl band, inoculated 2 days after application): 10 mm

Source: patent publication EP0897904B1, “Fungicidal 2-methoxybenzophenones” (BASF AKTIENGESELLSCHAFT, priority 1997, dated 1999)
